Source: patent publication US10689377B2 (Mirati Therapeutics, Inc., priority 2017, dated 2020)

What was measured:
[1] = In vitro stability in human whole blood; format: in vitro ADME; conditions: male, whole blood diluted to 50% with PBS, pH 7.4, human whole blood diluted to 50% with PBS, 5 μM, 37° C., 240-minute incubation, read-out: Compound Half-life
Excerpt: Materials: The following reagents were used as received: acetonitrile (HPLC grade, Burdick & Jackson, Madison, Wis.), phosphate buffered saline (PBS), pH 7.4 (Sigma-Aldrich, Co., St. Louis, Mo.), water (HPLC grade, JT Baker, Phillipsburg, N.J.), DMSO (EM Science, Merck KGaA, Darmstadt, Germany) and isopropanol (IPA, reagent grade, EMD Chemicals, Gibbstown, N.J.). Propantheline and esmolol (Sigma-Aldrich) were used as the positive control compounds in the assay. Diazepam (Sigma-Aldrich) was used as an internal standard for quantitation. Human whole blood was obtained from BioIVT (Westbury, N.Y.) […]. All other reagents and solvents were of the highest analytical grade supplied by Sigma (St. Louis, Mo.) and were used as received.
Blood Incubations: The in vitro stability of representative KRas G12C inhibitor compounds of the present invention in the presence whole blood was conducted in the following manner. Esmolol or propantheline, which are known to undergo ester hydrolysis by esterases in blood and plasma, were used as the positive controls in the assays. A 10 mM stock solution of propantheline, esmolol, or a compound of the present invention in DMSO was diluted to 500 μM with DMSO. Aliquots of whole blood (600 μL), in triplicate, were placed in the appropriate wells of a polypropylene 96-deep well plate (Axygen Scientific, Union City, Calif.). The blood was diluted to 50% using PBS, pH 7.4 (600 μL). The diluted blood was pre-incubated for 15 minutes at 37° C. Each well was dosed with 12 μL of the 500 μM DMSO stock simultaneously for a final test concentration of 5 μM. The plates were mixed at 600 rpm for 10 seconds on a plate shaker (IKA MTS 2/4 Digital Microtiter Shaker, VWR). Aliquots of 100 μL from each well of whole blood were transferred to three separate 96-deep well plates labeled 0, 60, or 240 minutes. At the end of each designated time point, the red blood cells were lysed with 100 μL of water, mixed at 600 rpm for one minute, and stopped with 800 μL of acetonitrile containing IS (0.625 μM diazepam). The plates were mixed on the plate shaker at 600 rpm for one minute and spun in a centrifuge at 2095×g for 7 minutes at room temperature using an Allegra benchtop centrifuge (Beckman Coulter, Fullerton, Calif.). Supernatant (100 μL) was transferred to a shallow 96-well plate (Costar) using a liquid sample handling system (Apricot, Perkin-Elmer, Boston, Mass.). The addition of 100 μL of water was added to each sample of supernatant for a final volume of 200 μL. The plates were sealed and the contents of each well were analyzed by LC-MS/MS.
Analytical quantitation: The LC-MS/MS system was comprised of an HTS-PAL autosampler (Leap Technologies, Carrboro, N.C.), an HP1200 HPLC (Agilent, Palo Alto, Calif.), and an API4000 triple quadrupole mass spectrometer (PE Sciex, a division of Applied Biosystems, Foster City, Calif.). […] The total run time, including re-equilibration, for a single injection was 2 minutes. Mass spectrometric detection of the analytes was accomplished using the ESI ionization mode. Ion current was optimized during infusion of a stock solution of propantheline, esmolol, or the representative test compound. Analyte responses, including the IS were measured by multiple reaction monitoring (MRM) of transitions unique to each compound.
Calculations: Data were acquired and peak areas were calculated for test compounds and the internal standard using Analyst 1.6.2 software (Sciex). The mean peak area ratios were calculated by averaging the peak area ratios (n=3) of each test compound and the IS for each sample.
Peak area tables were exported to BioAssay Enterprise (CambridgeSoft, Cambridge, Mass.), where the average analyte-to-internal standard peak area ratios were used to calculate percent remaining (% REM) and half-life (t1/2). Percent remaining (f) was calculated by determining the ratio of the peak area ratio at each time point to the peak area ratio of the time-zero samples. […]

[2] = molecular target: KRas G12C (Homo sapiens, UniProt P01116, G12C); experiment: Cellular inhibition of KRas G12C measured by Phospho-ERK in NCI-H358 cells; format: cell-based; conditions: pERK(Thr202/Tyr204) normalized with GAPDH, NCI-H358 cells, 3 hours; read-out: IC50
In short: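 Following 8-12 h attachment, NCI-H358 cells got serially diluted compound (0.5% DMSO) for 3 hours. Cells were then fixed, permeabilized with cold methanol, and stained for pERK(Thr202/Tyr204) and GAPDH. Ratios were converted to percent of DMSO control, with IC50 obtained by four-parameter regression.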

Chain of KRas G12C (P01116 1-188 isoform P01116-2 G12C): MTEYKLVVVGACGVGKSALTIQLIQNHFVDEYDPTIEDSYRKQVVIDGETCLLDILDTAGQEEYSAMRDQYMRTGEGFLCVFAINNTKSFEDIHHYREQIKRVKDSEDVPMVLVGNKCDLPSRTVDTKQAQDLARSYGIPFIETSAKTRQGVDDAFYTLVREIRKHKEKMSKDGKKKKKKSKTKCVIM

| SMILES | half-life at 5 µM [1] [h] | IC50 [2] [nM] |
| --- | --- | --- |
| Cc1cccc2cccc(N3CCc4c(nc(OC[C@@H]5CCCN5C)nc4N4CCN(C(=O)/C=C/Cn5cccn5)[C@@H](CC#N)C4)C3)c12 [Example 509] | > 33.3 | 0.1 to 1000 |
| Cc1cccc2cccc(N3CCc4c(nc(OC[C@@H]5CCCN5C)nc4N4CCN(C(=O)/C=C/CO)[C@@H](CC#N)C4)C3)c12 [Example 510, 2-((S)-1-((E)-4-hydroxybut-2-enoyl)-4-(7-(8-methylnaphthalen-1-yl)-2-(((S)-1-methylpyrrolidin-2-yl)methoxy)-5,6,7,8-tetrahydropyrido[3,4-d]pyrimidin-4-yl)piperazin-2-yl)acetonitrile] | 16.7 to 33.3 | 0.1 to 1000 |
| COC/C=C/C(=O)N1CCN(c2nc(OC[C@@H]3CCCN3C)nc3c2CCN(c2cccc4cccc(C)c24)C3)C[C@@H]1CC#N [Example 511, 2-((S)-1-((E)-4-methoxybut-2-enoyl)-4-(7-(8-methylnaphthalen-1-yl)-2-(((S)-1-methylpyrrolidin-2-yl)methoxy)-5,6,7,8-tetrahydropyrido[3,4-d]pyrimidin-4-yl)piperazin-2-yl)acetonitrile] | > 33.3 | 0.1 to 1000 |
| C=C(OC)C(=O)N1CCN(c2nc(OC[C@@H]3CCCN3C)nc3c2CCN(c2cccc4cccc(C)c24)C3)C[C@@H]1CC#N [Example 512, 2-[(2S)-1-(2-methoxyprop-2-enoyl)-4-[7-(8-methyl-1-naphthyl)-2-[[(2S)-1-methylpyrrolidin-2-yl]methoxy]-6,8-dihydro-5H-pyrido[3,4-d]pyrimidin-4-yl]piperazin-2-yl]acetonitrile] | > 33.3 | > 1000 |
| CN1CCC[C@H]1COc1nc2c(c(N3CCN(C(=O)/C=C/CO)[C@@H](CC#N)C3)n1)CCN(c1cccc3cccc(Cl)c13)C2 [Example 513, 2-[(2S)-4-[7-(8-chloro-1-naphthyl)-2-[[(2S)-1-methylpyrrolidin-2-yl]methoxy]-6,8-dihydro-5H-pyrido[3,4-d]pyrimidin-4-yl]-1-[(E)-4-hydroxybut-2-enoyl]piperazin-2-yl]acetonitrile] | 16.7 to 33.3 | 0.1 to 1000 |
| C=C(OC)C(=O)N1CCN(c2nc(OC[C@@H]3CCCN3C)nc3c2CCN(c2cccc4cccc(Cl)c24)C3)C[C@@H]1CC#N [Example 514, 2-[(2S)-4-[7-(8-chloro-1-naphthyl)-2-[[(2S)-1-methylpyrrolidin-2-yl]methoxy]-6,8-dihydro-5H-pyrido[3,4-d]pyrimidin-4-yl]-1-(2-methoxyprop-2-enoyl)piperazin-2-yl] acetonitrile] | > 33.3 | > 1000 |
| C=C(F)C(=O)N1CCN(c2nc(OC[C@H]3CCCN3C)nc3c2CCN(c2cccc4cccc(C)c24)C3)C[C@@H]1CC#N [Example 516, 2-((S)-1-(2-fluoroacryloyl)-4-(7-(8-methylnaphthalen-1-yl)-2-(((R)-1-methylpyrrolidin-2-yl)methoxy)-5,6,7,8-tetrahydropyrido[3,4-d]pyrimidin-4-yl)piperazin-2-yl)acetonitrile] | > 33.3 | 0.1 to 1000 |
| Cc1cccc2cccc(N3CCc4c(nc(OC[C@H]5CCCN5C)nc4N4CCN(C(=O)/C=C/CO)[C@@H](CC#N)C4)C3)c12 [Example 517, 2-((S)-1-((E)-4-hydroxybut-2-enoyl)-4-(7-(8-methylnaphthalen-1-yl)-2-(((R)-1-methylpyrrolidin-2-yl)methoxy)-5,6,7,8-tetrahydropyrido[3,4-d]pyrimidin-4-yl)piperazin-2-yl)acetonitrile] | 16.7 to 33.3 | 0.1 to 1000 |
| COC/C=C/C(=O)N1CCN(c2nc(OC[C@@H]3CCCN3C)nc3c2CCN(c2cccc4cccc(Cl)c24)C3)C[C@@H]1CC#N [Example 524, 2-((S)-4-(7-(8-chloronaphthalen-1-yl)-2-(((S)-1-methylpyrrolidin-2-yl)methoxy)-5,6,7,8-tetrahydropyrido[3,4-d]pyrimidin-4-yl)-1-((E)-4-methoxybut-2-enoyl)piperazin-2-yl)acetonitrile] | > 33.3 | 0.1 to 1000 |
| Cc1cccc2cccc(N3CCc4c(nc(OC[C@H]5CCCN5C)nc4N4CCN(C(=O)/C=C/CF)[C@@H](CC#N)C4)C3)c12 [Example 579, 2-[(2S)-1-[(E)-4-Fluorobut-2-enoyl]-4-[7-(8-methyl-1-naphthyl)-2-[[(2R)-1-methylpyrrolidin-2-yl]methoxy]-6,8-dihydro-5H-pyrido[3,4-d]pyrimidin-4-yl]piperazin-2-yl]acetonitrile] | 16.7 to 33.3 | 0.1 to 1000 |
